Source: the supplement of paper PMC8741786
≈ marks a conversion by molar mass, not a printed value.

Test system: Neisseria subflava/flavescens/perflava
Assay: minimum inhibitory concentration (ETEST)
Experimental: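 Oropharyngeal Neisseria isolates from MSM and employees in Belgium were identified to species by MALDI-TOF MS. MICs of azithromycin, ceftriaxone and ciprofloxacin were determined by ETEST on GC agar after 24 h at 36.5 °C and 5-7% CO2, in mg/L. Values beyond the strip range are reported as >256 (azithromycin) or <0.016 (ceftriaxone); isolates that did not grow are NA.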

**Q.** What does the source list for `CO/N=C(\C(=O)N[C@@H]1C(=O)N2C(C(=O)O)=C(CSc3nc(=O)c(O)nn3C)CS[C@H]12)c1csc(N)n1` [ceftriaxone]?
**A.** minimum inhibitory concentration (isolate id (sample isolate): 19041762_1, population: MSM, antibiotic use in previous 6 months: Yes): 0.016 µg/mL (≈ 0.0289 µM); minimum inhibitory concentration (isolate id (sample isolate): 19041762_1.1, population: MSM, antibiotic use in previous 6 months: Yes): 0.023 µg/mL (≈ 0.0415 µM); minimum inhibitory concentration (isolate id (sample isolate): 19041780_1, population: MSM, antibiotic use in previous 6 months: Yes): 0.064 µg/mL (≈ 0.115 µM); minimum inhibitory concentration (isolate id (sample isolate): 19042150_1, population: MSM, antibiotic use in previous 6 months: Yes): 0.5 µg/mL (≈ 0.902 µM); minimum inhibitory concentration (isolate id (sample isolate): 19042150_3, population: MSM, antibiotic use in previous 6 months: Yes): 0.047 µg/mL (≈ 0.0847 µM); minimum inhibitory concentration (isolate id (sample isolate): 19042756_1, population: MSM, antibiotic use in previous 6 months: Yes): 0.023 µg/mL (≈ 0.0415 µM); minimum inhibitory concentration (isolate id (sample isolate): 19042756_2, population: MSM, antibiotic use in previous 6 months: Yes): 0.023 µg/mL (≈ 0.0415 µM); minimum inhibitory concentration (isolate id (sample isolate): 19043201_1.1, population: MSM, antibiotic use in previous 6 months: No): 0.047 µg/mL (≈ 0.0847 µM); minimum inhibitory concentration (isolate id (sample isolate): 19043201_2.1, population: MSM, antibiotic use in previous 6 months: No): 1 µg/mL (≈ 1.8 µM); minimum inhibitory concentration (isolate id (sample isolate): 19043201_3, population: MSM, antibiotic use in previous 6 months: No): 0.064 µg/mL (≈ 0.115 µM); minimum inhibitory concentration (isolate id (sample isolate): 19043274_3, population: MSM, antibiotic use in previous 6 months: Yes): 0.064 µg/mL (≈ 0.115 µM); minimum inhibitory concentration (isolate id (sample isolate): 19050474_1, population: MSM, antibiotic use in previous 6 months: No): 0.047 µg/mL (≈ 0.0847 µM); minimum inhibitory concentration (isolate id (sample isolate): 19050514_1, population: MSM, antibiotic use in previous 6 months: Yes): 0.047 µg/mL (≈ 0.0847 µM); minimum inhibitory concentration (isolate id (sample isolate): 19050949_1, population: MSM, antibiotic use in previous 6 months: No): 0.032 µg/mL (≈ 0.0577 µM); minimum inhibitory concentration (isolate id (sample isolate): 19050949_2, population: MSM, antibiotic use in previous 6 months: No): 0.023 µg/mL (≈ 0.0415 µM); minimum inhibitory concentration (isolate id (sample isolate): 19050949_2.1, population: MSM, antibiotic use in previous 6 months: No): 0.016 µg/mL (≈ 0.0289 µM); minimum inhibitory concentration (isolate id (sample isolate): 19051904_2, population: MSM, antibiotic use in previous 6 months: Yes): 0.064 µg/mL (≈ 0.115 µM); minimum inhibitory concentration (isolate id (sample isolate): 19051904_3, population: MSM, antibiotic use in previous 6 months: Yes): 0.064 µg/mL (≈ 0.115 µM); minimum inhibitory concentration (isolate id (sample isolate): 19052394_1, population: MSM, antibiotic use in previous 6 months: Yes): 0.032 µg/mL (≈ 0.0577 µM); minimum inhibitory concentration (isolate id (sample isolate): 19052394_1.1, population: MSM, antibiotic use in previous 6 months: Yes): 0.023 µg/mL (≈ 0.0415 µM); minimum inhibitory concentration (isolate id (sample isolate): 19060089_1, population: MSM, antibiotic use in previous 6 months: Yes): 0.047 µg/mL (≈ 0.0847 µM); minimum inhibitory concentration (isolate id (sample isolate): 19062994_1, population: MSM, antibiotic use in previous 6 months: Yes): 0.047 µg/mL (≈ 0.0847 µM); minimum inhibitory concentration (isolate id (sample isolate): Co000761_2, population: general population, antibiotic use in previous 6 months: No): 0.023 µg/mL (≈ 0.0415 µM); minimum inhibitory concentration (isolate id (sample isolate): Co000761_3, population: general population, antibiotic use in previous 6 months: No): 0.032 µg/mL (≈ 0.0577 µM); minimum inhibitory concentration (isolate id (sample isolate): Co000761_5, population: general population, antibiotic use in previous 6 months: No): 0.016 µg/mL (≈ 0.0289 µM); minimum inhibitory concentration (isolate id (sample isolate): Co000761_6, population: general population, antibiotic use in previous 6 months: No): 0.016 µg/mL (≈ 0.0289 µM); minimum inhibitory concentration (isolate id (sample isolate): Co000762_3, population: general population, antibiotic use in previous 6 months: No): 0.094 µg/mL (≈ 0.169 µM); minimum inhibitory concentration (isolate id (sample isolate): Co000762_4, population: general population, antibiotic use in previous 6 months: No): 0.094 µg/mL (≈ 0.169 µM); minimum inhibitory concentration (isolate id (sample isolate): Co000763_2, population: general population, antibiotic use in previous 6 months: No): 0.032 µg/mL (≈ 0.0577 µM); minimum inhibitory concentration (isolate id (sample isolate): Co000764_1, population: general population, antibiotic use in previous 6 months: No): 0.032 µg/mL (≈ 0.0577 µM); minimum inhibitory concentration (isolate id (sample isolate): Co000764_2, population: general population, antibiotic use in previous 6 months: No): 0.023 µg/mL (≈ 0.0415 µM); minimum inhibitory concentration (isolate id (sample isolate): Co000765_2, population: general population, antibiotic use in previous 6 months: No): 0.047 µg/mL (≈ 0.0847 µM); minimum inhibitory concentration (isolate id (sample isolate): Co000765_3, population: general population, antibiotic use in previous 6 months: No): 0.032 µg/mL (≈ 0.0577 µM); minimum inhibitory concentration (isolate id (sample isolate): Co000765_4, population: general population, antibiotic use in previous 6 months: No): 0.023 µg/mL (≈ 0.0415 µM); minimum inhibitory concentration (isolate id (sample isolate): Co000766_1, population: general population, antibiotic use in previous 6 months: No): 0.023 µg/mL (≈ 0.0415 µM); minimum inhibitory concentration (isolate id (sample isolate): Co000766_3, population: general population, antibiotic use in previous 6 months: No): 0.032 µg/mL (≈ 0.0577 µM); minimum inhibitory concentration (isolate id (sample isolate): Co000767_1, population: general population, antibiotic use in previous 6 months: No): 0.023 µg/mL (≈ 0.0415 µM); minimum inhibitory concentration (isolate id (sample isolate): Co000767_2, population: general population, antibiotic use in previous 6 months: No): 0.023 µg/mL (≈ 0.0415 µM); minimum inhibitory concentration (isolate id (sample isolate): Co000767_4, population: general population, antibiotic use in previous 6 months: No): 0.023 µg/mL (≈ 0.0415 µM); minimum inhibitory concentration (isolate id (sample isolate): Co000767_5, population: general population, antibiotic use in previous 6 months: No): 0.064 µg/mL (≈ 0.115 µM); minimum inhibitory concentration (isolate id (sample isolate): Co000767_6, population: general population, antibiotic use in previous 6 months: No): 0.023 µg/mL (≈ 0.0415 µM); minimum inhibitory concentration (isolate id (sample isolate): Co000767_7, population: general population, antibiotic use in previous 6 months: No): 0.047 µg/mL (≈ 0.0847 µM); minimum inhibitory concentration (isolate id (sample isolate): Co000768_1, population: general population, antibiotic use in previous 6 months: No): 0.023 µg/mL (≈ 0.0415 µM); minimum inhibitory concentration (isolate id (sample isolate): Co000768_2, population: general population, antibiotic use in previous 6 months: No): 0.023 µg/mL (≈ 0.0415 µM); minimum inhibitory concentration (isolate id (sample isolate): Co000769_1, population: general population, antibiotic use in previous 6 months: No): 0.047 µg/mL (≈ 0.0847 µM); minimum inhibitory concentration (isolate id (sample isolate): Co000769_2, population: general population, antibiotic use in previous 6 months: No): 0.023 µg/mL (≈ 0.0415 µM); minimum inhibitory concentration (isolate id (sample isolate): Co000769_4, population: general population, antibiotic use in previous 6 months: No): 0.064 µg/mL (≈ 0.115 µM); minimum inhibitory concentration (isolate id (sample isolate): Co000770_2, population: general population, antibiotic use in previous 6 months: No): 0.032 µg/mL (≈ 0.0577 µM); minimum inhibitory concentration (isolate id (sample isolate): Co000770_4, population: general population, antibiotic use in previous 6 months: No): 0.032 µg/mL (≈ 0.0577 µM); minimum inhibitory concentration (isolate id (sample isolate): Co000770_6, population: general population, antibiotic use in previous 6 months: No): 0.032 µg/mL (≈ 0.0577 µM); minimum inhibitory concentration (isolate id (sample isolate): Co000771_2, population: general population, antibiotic use in previous 6 months: No): 0.064 µg/mL (≈ 0.115 µM); minimum inhibitory concentration (isolate id (sample isolate): Co000771_3, population: general population, antibiotic use in previous 6 months: No): 0.016 µg/mL (≈ 0.0289 µM); minimum inhibitory concentration (isolate id (sample isolate): Co000771_5, population: general population, antibiotic use in previous 6 months: No): 0.064 µg/mL (≈ 0.115 µM); minimum inhibitory concentration (isolate id (sample isolate): Co000772_1, population: general population, antibiotic use in previous 6 months: No): 0.064 µg/mL (≈ 0.115 µM); minimum inhibitory concentration (isolate id (sample isolate): Co000772_2, population: general population, antibiotic use in previous 6 months: No): 0.064 µg/mL (≈ 0.115 µM); minimum inhibitory concentration (isolate id (sample isolate): Co000772_4, population: general population, antibiotic use in previous 6 months: No): 0.023 µg/mL (≈ 0.0415 µM); minimum inhibitory concentration (isolate id (sample isolate): Co000772_5, population: general population, antibiotic use in previous 6 months: No): 0.023 µg/mL (≈ 0.0415 µM); minimum inhibitory concentration (isolate id (sample isolate): Co000772_6, population: general population, antibiotic use in previous 6 months: No): 0.016 µg/mL (≈ 0.0289 µM)
